According to patent publication US11753445B2, “Therapeutic peptides” (COHBAR, INC., priority 2016, dated 2023):
Ends that are not written are not given here. Peptide text beside a SMILES is read from it. * marks the point of attachment. Biotin = O=C1N[C@H]2[C@H](CS[C@H]2CCCCC(=O)*)N1

Legend:
3T3-L1 Adipocytes [1] = test: Free fatty acid levels in cultured mouse 3T3-L1 adipocytes, isoproterenol stimulated (Example 17); format: cell-based; details: isoproterenol 1 nM
Description: Mouse 3T3-L1 cells were seeded at a density between 1,000-20,000 cells per well on 96-well, 48-well, or 24-well plates in Pre-adipocyte Medium (Zen-Bio, Durham, N.C.) and grown to confluence at 37° C. in a humidified atmosphere of 5% CO2/95% air. Two days after confluence, cells were placed in Adipocyte Differentiation Medium (Zen-Bio, Durham, N.C.) and cultured for three additional days at 37° C. in a humidified atmosphere of 5% CO2/95% air. The culture media was then replaced with Adipocyte Maintenance Medium (Zen-Bio) and the cells were maintained for an additional 9-14 days at 37° C. in a humidified atmosphere of 5% CO2/95% air with partial medium replacement every other day. Following 12-17 days of differentiation, test peptides were added at a final concentration of 25-50 μM and incubated for 18-20 hours in Adipocyte Maintenance Medium at 37° C. in a humidified atmosphere of 5% CO2/95%. After the media incubation, media was removed and exchanged with Assay Buffer (Zen-Bio) containing isoproterenol (1 nM) (added to all samples except untreated controls) and the test peptides. Cells were incubated for a further 3 hours at 37° C. in a humidified atmosphere of 5% CO2/95%. Free fatty acid concentrations in the media were determined using a Free Fatty Acid Assay Kit (Zen-Bio) according to the manufacturer's instructions using a plate reader (540 nm).
Absorbance values were corrected for untreated background and expressed relative to isoproterenol treated cells. Treatment with isoproterenol (1 nM) alone was used as the free fatty acid level stimulatory control. The relative standard deviation of the isoproterenol control was <10%. […] Free fatty acid levels for insulin (100 nM) treatment were <5% of the isoproterenol control value.

3T3-L1 Adipocytes [2] = test: Free fatty acid levels in cultured mouse 3T3-L1 adipocytes, forskolin stimulated (Example 3); format: cell-based; details: test peptides 25 μM; forskolin 1 μM
Description: Mouse 3T3-L1 cells were seeded at 1,000-20,000 cells per well on 96-well, 48-well, or 24-well plates in Pre-adipocyte Medium (Zen-Bio, Durham, N.C.) and grown to confluence at 37° C. in a humidified atmosphere of 5% CO2/95% air. Two days after confluence, cells were placed in Adipocyte Differentiation Medium (Zen-Bio, Durham, N.C.) and cultured for three additional days at 37° C. in a humidified atmosphere of 5% CO2/95% air. The culture media was then replaced with Adipocyte Maintenance Medium (Zen-Bio) and the cells were maintained for an additional 9-14 days at 37° C. in a humidified atmosphere of 5% CO2/95% air with partial medium replacement every other day. Following 12-17 days of differentiation, test peptides were added at a final concentration of 25 μM and incubated for 18-20 hours in Adipocyte Maintenance Medium at 37° C. in a humidified atmosphere of 5% CO2/95%. After 18-20 hours, the media was exchanged with fresh Adipocyte Maintenance Medium containing test peptides and incubated for 1 h at 37° C. in a humidified atmosphere of 5% CO2/95%. After 1 h media was exchanged with Assay Buffer (Zen-Bio) containing forskolin (1 μM) (added to all samples except untreated controls) and test peptides. Cells were incubated for a further 3 hours at 37° C. in a humidified atmosphere of 5% CO2/95%. Free fatty acid concentrations in the media were determined using a Free Fatty Acid Assay Kit (Zen-Bio) according to the manufacturer's instructions using a plate reader (540 nm). Absorbance values were corrected for untreated background and expressed relative to forskolin treated cells. Treatment with forskolin (1 μM) alone was used as the free fatty acid level stimulatory control. The relative standard deviation of the forskolin control was <10%. […] Free fatty acid levels for insulin (100 nM) treatment were <9% of the forskolin control value.

Human Primary Adipocytes = test: Free fatty acid levels in cultured human primary adipocytes, forskolin stimulated (Example 5); format: cell-based; details: test peptides 25 μM; forskolin 1 μM
Description: Human primary adipocytes were seeded at 5,000-100,000 cells per well on 96-well, 48-well, or 24-well plate in Pre-adipocyte Medium (Zen-Bio, Durham, N.C.) and grown to confluence at 37° C. in a humidified atmosphere of 5% CO2/95% air. Two days after confluence, cells were placed in Adipocyte Differentiation Medium (Zen-Bio, Durham, N.C.) and cultured for three additional days at 37° C. in a humidified atmosphere of 5% CO2/95% air. The culture media was then replaced with Adipocyte Maintenance Medium (Zen-Bio) and the cells were maintained for an additional 11-21 days at 37° C. in a humidified atmosphere of 5% CO2/95% air with partial medium replacement every other day. Following 14-24 days of differentiation, test peptides were added at a final concentration of 25 μM and incubated for 18-20 hours in Adipocyte Maintenance Medium at 37° C. in a humidified atmosphere of 5% CO2/95%. After 18-20 hours, the media was exchanged with fresh Adipocyte Maintenance Medium containing test peptides and incubated for 1 h at 37° C. in a humidified atmosphere of 5% CO2/95%. After 1 h media was exchanged with Assay Buffer (Zen-Bio) containing forskolin (1 μM) (added to all samples except untreated controls) and test peptides. Cells were incubated for a further 3 hours at 37° C. in a humidified atmosphere of 5% CO2/95%. Free fatty acid concentrations in the media were determined using a Free Fatty Acid Assay Kit (Zen-Bio) according to the manufacturer's instructions using a plate reader (540 nm). Absorbance values were corrected for untreated background and expressed relative to forskolin treated cells. Treatment with forskolin (1 μM) alone was used as the free fatty acid level stimulatory control. The relative standard deviation of the forskolin control was <20%. […] Free fatty acid levels for insulin (100 nM) treatment were <8% of the forskolin control value.

3T3-L1 Adipocytes [3] = test: Free fatty acid levels in cultured mouse 3T3-L1 adipocytes, isoproterenol stimulated (Example 2); format: cell-based; details: test peptides 25 μM; isoproterenol 1 nM
Summary of the method: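 Release of free fatty acids, read at 540 nm, was stimulated with 1 nM isoproterenol for 3 h in mouse 3T3-L1 adipocytes (12–17 days of differentiation). Cells were pre-exposed to 25 μM peptide for 18–20 h plus 1 h, with peptide kept in during stimulation. Values are background-subtracted and normalised to isoproterenol alone.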

[4] = Stability in mouse plasma, peptides 100 uM (Example 14); format: in vitro ADME; details: mouse plasma 37° C., peptide 100 uM
Description: Peptides (100 uM) were incubated in pooled mouse plasma at 37° C. and samples were removed and immediately analyzed for the concentration of intact peptide by LC/MS/MS over the course of 3 hours. The percent of peptide remaining in plasma at each time point was calculated relative to the initial peak area (Table 12).

[5] = test system: Diet Induced Obese (DIO) mice; test: Body weight, blood glucose and fat mass in Diet Induced Obese mice, 10 days (Example 6); format: in vivo, Male C57BL/6 mice; details: male DIO mice; 10 days twice daily intraperitoneal 15 mg/kg; N = 8; mean
Description: Animals were randomized to treatment groups based on blood glucose levels and body weight. The peptides of the invention were administered to two groups of male DIG mice once or twice daily by subcutaneous or intraperitoneal injection at a dose of 15 mg/kg/dose for 10 days (N=8 animals per treatment group). An additional group of male DIG mice (n=8) received vehicle (water or saline) alone. Body weight, blood glucose levels and food intake were monitored. Body mass distribution (fat vs lean) was determined by quantitative whole body NMR prior to dosing and at the end of dosing.

Compound	Free Fatty Acid Levels in 3T3-L1 Adipocytes Expressed as a Percent of Isoproterenol Control: Percent of Control Value (3T3-L1 Adipocytes [1]; Peptide Concentration 25 μM)	Free Fatty Acid Levels in 3T3-L1 Adipocytes Expressed as a Percent of Isoproterenol Control: Percent of Control Value (3T3-L1 Adipocytes [1]; Peptide Concentration 50 μM)	further results
358 (Biotin-RWQEMNYIFYPR) [compound 358]	60.8%	–	–
359 (RWQEMNYIFYPRK-biotin; not fully specified (residue 13); printed as RWQEMNYIFYPRK-(Biotin)) [compound 359]	34.8%	–	–
367 (Biotin-KRWQEMNYIFYPR) [compound 367]	–	59.0%	–
368 (PEG600-KNYIFYPR) [compound 368]	–	70.0%	–
369 (PEG600-KEMNYIFYPR) [compound 369]	–	87.5%	–
370 (PEG600-KWQEMNYIFYPR) [compound 370]	–	129.0%	–
371 (PEG600-KRWQEMNYIFYP) [compound 371]	–	118.0%	–
372 (PEG600-KWQEMNYIFYP) [compound 372]	–	168.0%	–
CC[C@H](C)[C@H](NC(=O)[C@H](Cc1ccc(O)cc1)NC(=O)[C@H](CC(N)=O)NC(=O)[C@H](CCSC)NC(=O)[C@H](CCC(=O)O)NC(=O)[C@H](CCC(N)=O)NC(=O)[C@H](Cc1c[nH]c2ccccc12)NC(=O)[C@@H](N)CCCNC(=N)N)C(=O)N[C@@H](Cc1ccccc1)C(=O)N[C@@H](Cc1ccc(O)cc1)C(=O)N1CCC[C@H]1C(=O)N[C@@H](CCCNC(=N)N)C(=O)N[C@H](C)C(=O)O [compound 355] (HELM PEPTIDE1{R.W.Q.E.M.N.Y.I.F.Y.P.R.[dA]}$$$$V2.0)	97.8%	–	–
CC[C@H](C)[C@H](NC(=O)[C@H](Cc1ccc(O)cc1)NC(=O)[C@H](CC(N)=O)NC(=O)[C@H](CCSC)NC(=O)[C@H](CCC(=O)O)NC(=O)[C@H](CCC(N)=O)NC(=O)[C@H](Cc1c[nH]c2ccccc12)NC(=O)[C@@H](N)CCCNC(=N)N)C(=O)N[C@@H](Cc1ccccc1)C(=O)N[C@@H](Cc1ccc(O)cc1)C(=O)N1CCC[C@H]1C(=O)N[C@@H](CCCNC(=N)N)C(=O)N[C@@H](CCCNC(=N)N)C(=O)N[C@H](C)C(=O)O [compound 356] (HELM PEPTIDE1{R.W.Q.E.M.N.Y.I.F.Y.P.R.R.[dA]}$$$$V2.0)	100.6%	–	–
H-EMNYIFYP-OH [compound 362]	92.5%	–	–
H-IFYPR-OH [compound 360]	94.6%	–	–
H-QEMNYIFYP-OH [compound 363]	131.5%	–	–
H-QEMNYIFYPR-OH [compound 366]	82.0%	–	–
H-RWQEM-OH [compound 351]	100.1%	–	–
H-RWQEMGYIFYPRQLR-OH [compound 217]	–	–	Free Fatty Acid Levels in 3T3-L1 Adipocytes Expressed as a Percent of Forskolin Control: Percent of Control Value (3T3-L1 Adipocytes [2]): 40.3%; Free Fatty Acid Levels in Human Primary Adipocytes Expressed as a Percent of Forskolin Control: Percent of Control Value (Human Primary Adipocytes): 108%; Free Fatty Acid Levels in 3T3-L1 Adipocytes Expressed as a Percent of Isoproterenol Control: Percent of Control Value (3T3-L1 Adipocytes [3]): 27.3%; % Remaining at Each Time Point: 0 min ([4]; 0 min): 100%; remaining at 0.25 h, 100 uM ([4]; pooled mouse plasma, 15 min, read-out: % Remaining at Each Time Point: 15 min): 71%; remaining at 0.5 h, 100 uM ([4]; pooled mouse plasma, 30 min, read-out: % Remaining at Each Time Point: 30 min): 33.2%; remaining at 1 h, 100 uM ([4]; pooled mouse plasma, 60 min, read-out: % Remaining at Each Time Point: 60 min): 53.6%; remaining at 2 h, 100 uM ([4]; pooled mouse plasma, 120 min, read-out: % Remaining at Each Time Point: 120 min): 22.8%; remaining at 3 h, 100 uM ([4]; pooled mouse plasma, 180 min, read-out: % Remaining at Each Time Point: 180 min): 14.1%; Difference from Vehicle Control: Decrease from Baseline in Blood Glucose [5]: -9.75 mg/dL; Difference from Vehicle Control: Decrease from Baseline in Body Weight (%) [5]: −2.54%; Difference from Vehicle Control: Decrease from Baseline in Fat Mass [5]: -0.89 g
H-RWQEMNYIFYPR-NH2 [compound 354]	92.3%	–	–
H-WQEMNYIFY-OH [compound 365]	85.6%	–	–
H-YIFYPR-OH [compound 296]	85.0%	–	–
